Measured values taken from US20210277015A1, “OGA INHIBITOR COMPOUNDS” (Janssen Pharmaceutica NV, priority 2018, published 2021).

Molecular target: T1, recombinant human Meningioma Expressed Antigen 5 (MGEA5), also referred to as O-GlcNAcase (OGA) (Homo sapiens, UniProt O60502)
T1 construct: Full length OGA enzyme was purchased at OriGene (cat #TP322411); purchased OriGene TP322411
T1 sequence (O60502 1-916): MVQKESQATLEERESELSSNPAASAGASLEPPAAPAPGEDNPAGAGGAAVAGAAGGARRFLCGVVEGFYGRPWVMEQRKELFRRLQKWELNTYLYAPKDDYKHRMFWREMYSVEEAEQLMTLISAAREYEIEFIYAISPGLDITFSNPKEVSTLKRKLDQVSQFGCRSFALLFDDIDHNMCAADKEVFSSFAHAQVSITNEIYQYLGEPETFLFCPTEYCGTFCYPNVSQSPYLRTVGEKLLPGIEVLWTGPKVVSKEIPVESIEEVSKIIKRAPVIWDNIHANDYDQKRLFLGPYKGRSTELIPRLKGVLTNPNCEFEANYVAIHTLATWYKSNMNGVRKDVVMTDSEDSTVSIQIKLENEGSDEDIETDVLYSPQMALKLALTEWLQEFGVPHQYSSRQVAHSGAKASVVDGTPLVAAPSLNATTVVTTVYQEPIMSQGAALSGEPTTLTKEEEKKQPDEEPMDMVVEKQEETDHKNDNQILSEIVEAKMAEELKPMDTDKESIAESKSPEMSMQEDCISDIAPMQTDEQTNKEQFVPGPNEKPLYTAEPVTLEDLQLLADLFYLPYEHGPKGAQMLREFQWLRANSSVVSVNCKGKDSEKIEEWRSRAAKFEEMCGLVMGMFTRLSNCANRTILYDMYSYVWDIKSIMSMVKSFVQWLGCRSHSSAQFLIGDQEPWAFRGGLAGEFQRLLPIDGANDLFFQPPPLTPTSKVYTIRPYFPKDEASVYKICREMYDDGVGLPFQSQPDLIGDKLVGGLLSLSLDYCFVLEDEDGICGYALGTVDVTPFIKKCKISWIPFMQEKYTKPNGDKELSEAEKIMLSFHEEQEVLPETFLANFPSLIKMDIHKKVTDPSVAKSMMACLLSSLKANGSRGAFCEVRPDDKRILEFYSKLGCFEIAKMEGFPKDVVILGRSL
Test: OGA biochemical assay (inhibition of FM-GlcNAc hydrolysis, fluorescence)
Details: FM-GlcNAc substrate; for IC50: 6 h at room temperature, read-out: Enzymatic hOGA, pIC50 (converted); for Emax / Enzymatic Emax (%): maximal effect; for Emax: read-out: Enzymatic Emax (%)
Excerpt: The assay is based on the inhibition of the hydrolysis of fluorescein mono-β-D-N-Acetyl-Glucosamine (FM-GlcNAc) (Mariappa et al. 2015, Biochem J 470:255) by the recombinant human Meningioma Expressed Antigen 5 (MGEA5), also referred to as O-GlcNAcase (OGA). The hydrolysis FM-GlcNAc (Marker Gene technologies, cat #M1485) results in the formation of β-D-N-glucosamineacetate and fluorescein. The fluorescence of the latter can be measured at excitation wavelength 485 nm and emission wavelength 538 nm. An increase in enzyme activity results in an increase in fluorescence signal. Full length OGA enzyme was purchased at OriGene (cat #TP322411). The enzyme was stored in 25 mM Tris.HCl, pH 7.3, 100 mM glycine, 10% glycerol at −20° C. Thiamet G and GlcNAcStatin were tested as reference compounds (Yuzwa et al. 2008 Nature Chemical Biology 4:483; Yuzwa et al. 2012 Nature Chemical Biology 8:393). The assay was performed in 200 mM Citrate/phosphate buffer supplemented with 0.005% Tween-20. 35.6 g Na2HPO4 2 H2O (Sigma, #C0759) were dissolved in 1 L water to obtain a 200 mM solution. 19.2 g citric acid (Merck, #1.06580) was dissolved in 1 L water to obtain a 100 mM solution. pH of the sodium phosphate solution was adjusted with the citric acid solution to 7.2. The buffer to stop the reaction consists of a 500 mM Carbonate buffer, pH 11.0. 734 mg FM-GlcNAc were dissolved in 5.48 mL DMSO to obtain a 250 mM solution and was stored at −20° C. OGA was used at a 2 nM concentration and FM-GlcNAc at a 100 uM final concentration. Dilutions were prepared in assay buffer.
50 nl of a compound dissolved in DMSO was dispensed on Black Proxiplate™ 384 Plus Assay plates (Perkin Elmer, #6008269) and 3 μl fl-OGA enzyme mix added subsequently. Plates were pre-incubated for 60 min at room temperature and then 2 μl FM-GlcNAc substrate mix added. […] Plates were briefly centrifuged for 1 min at 1000 rpm and incubate at room temperature for 6 h. To stop the reaction 5 μl STOP buffer were added and plates centrifuge again 1 min at 1000 rpm. Fluorescence was quantified in the Thermo Scientific Fluoroskan Ascent or the PerkinElmer EnVision with excitation wavelength 485 nm and emission wavelength 538 nm.
For analysis a best-fit curve is fitted by a minimum sum of squares method. From this an IC50 value and Hill coefficient was obtained. High control (no inhibitor) and low control (saturating concentrations of standard inhibitor) were used to define the minimum and maximum values.

SMILES | IC50 [nM] | Emax [%] | Enzymatic Emax (%)
Cc1cc(C[C@H]2CCN([C@H](C)c3ccc4c(c3)OCC4)C2)cc(C)n1 (single isomer, unassigned) [Product 13] | 1000 | 91 | –
C[C@H](c1ccc2c(n1)OCCO2)N1CC[C@H](Cc2ncc(F)cc2F)C1 (single isomer, unassigned) [Product 22] | > 10000 | 32 | –
CC(c1ccc2c(n1)OCCO2)N1CC[C@H](Cc2ncc(F)cc2F)C1 (single isomer, unassigned) [Product 23] | 398 | 97 | –
Cc1cnc(C[C@H]2CCN(C(C)c3ccc4c(n3)OCCO4)C2)c(C)n1 (single isomer, unassigned) [Product 25] | 158 | – | 100
Cc1cnc(C[C@H]2CCN(C(C)c3ccc4c(n3)OCCO4)C2)c(C)n1 (single isomer, unassigned) [Product 26] | > 10000 | – | 35
CC(c1cc2c(cc1F)OCCO2)N1CC[C@H](Cc2ncc(F)cc2F)C1 (single isomer, unassigned) [Product 28] | 5010 | – | 67
COc1cc(O[C@H]2CCN(C(C)c3ccc4c(n3)OCCO4)C2)cc(C)n1 (single isomer, unassigned) [Product 64] | 398 | 99 | –
Cc1cc(C[C@H]2CCN(C(C)c3ccc4c(c3)OCCN4C)C2)cc(C)n1 (stereo partly drawn) [Product 1] | 2000 | 85 | –
Cc1cc(C[C@H]2CCN(Cc3ccc4c(c3)OCCN4C)C2)cc(C)n1 [Product 2] | 6170 | 61 | –
Cc1cc(C2CCN(C(C)c3ccc4c(n3)OCCO4)C2)cc(C)n1 (stereo not drawn) [Product 3] | 501 | 99 | –
COc1cc(C[C@H]2CCN(C(C)c3ccc4c(n3)OCCO4)C2)cc(C(F)(F)F)n1 (stereo partly drawn) [Product 4] | 100 | 103 | –
Cc1cc(C[C@H]2CCN(C(C)c3ccc4c(n3)OCCO4)C2)cc(C)n1 (stereo partly drawn) [Product 12] | 158 | 101 | –
CC(c1ccc2c(n1)OCCO2)N1CC[C@H](Cc2ncc(F)cc2F)C1 (stereo partly drawn) [Product 21] | 631 | 94 | –
Cc1cnc(C[C@H]2CCN(C(C)c3ccc4c(n3)OCCO4)C2)c(C)n1 (stereo partly drawn) [Product 24] | 251 | 101 | –
CC(c1cc2c(cc1F)OCCO2)N1CC[C@H](Cc2ncc(F)cc2F)C1 (stereo partly drawn) [Product 27] | 126 | 102 | –
Cc1cc(C[C@H]2CCN(C(C)c3cc4c(cc3F)OCCO4)C2)cc(C)n1 (stereo partly drawn) [Product 30] | 20 | 102 | –
Cc1cc(C[C@H]2CCN([C@H](C)c3cc4c(cc3F)OCCO4)C2)cc(C)n1 [Product 31] | 631 | 96 | –
COc1cc(C[C@H]2CCN(C(C)c3cnc4c(c3)C(=O)N(C)CC4)C2)cc(C)n1 (stereo partly drawn) [Product 33] | 126 | 102 | –
COc1cc(C[C@H]2CCN([C@H](C)c3cnc4c(c3)C(=O)N(C)CC4)C2)cc(C)n1 [Product 34] | 7940 | 58 | –
COc1cc(C[C@@H]2CCN([C@H](C)c3cc4c(cc3F)OCCO4)C2)cc(C)n1 [Product 42] | 1000 | 93 | –
Cc1cc(C[C@@H]2CCN([C@H](C)c3cc4c(cc3F)OCCO4)C2)cc(C)n1 [Product 44] | 251 | 99 | –
Cc1cc(OC[C@@H]2CCN(C(C)c3ccc4c(n3)OCCO4)C2)cc(C)n1 (stereo partly drawn) [Product 46] | 251 | 97 | –
COc1cc(O[C@H]2CCN(C(C)c3ccc4c(n3)OCCO4)C2)cc(C)n1 (stereo partly drawn) [Product 63] | 1000 | 95 | –

The remaining lines, values ahead:

IC50 [nM] | Emax [%] | Enzymatic Emax (%) | SMILES
1580 | 84 | – | COc1cc(O[C@@H]2CCN(C(C)c3ccc4c(n3)OCCO4)C2)cc(C)n1 (mixture of isomers) [Product 76]
158 | 100 | – | COc1cc(CC2(C)CCN(C(C)c3ccc4c(n3)OCCO4)C2)cc(C)n1 (mixture of isomers) [Product 91]
63.1 | 101 | – | Cc1cnc(C[C@H]2CCN(C(C)c3cc4c(cc3F)OCCO4)C2)c(C)n1 (mixture of isomers) [Product 96]
1260 | 94 | – | Cc1cc(O[C@H]2CCN(C(C)c3ccc4c(n3)OCCO4)C2)cc(C)n1 (mixture of isomers) [Product 70]
63.1 | 101 | – | Cc1cc(C[C@@H]2CCN(C(C)c3ccc4c(n3)OCCO4)C2)cc(C)n1 (mixture of isomers) [Product 78]
794 | 92 | – | COc1cc(C[C@H]2CCN([C@H](C)c3cc4c(cc3F)NCCO4)C2)cc(C)n1 (racemic) [Product 81]
100 | 100 | – | COc1cc(C[C@@H]2CCN(C(C)c3ccc4c(n3)OCCO4)C2)cc(C)n1 (mixture of isomers) [Product 89]
200 | – | 99 | COc1cc(C[C@H]2CCN(C(C)c3nc4c(cc3F)CCO4)C2)cc(C)n1 (single isomer, unassigned) [Product 85]
126 | – | 99 | COc1cc(C[C@H]2CCN(C(C)c3ccc4c(n3)OCCC4)C2)cc(C)n1 (single isomer, unassigned) [Product 87]
> 10000 | – | 38 | COc1cc(C[C@H]2CCN(C(C)c3ccc4c(n3)OCCC4)C2)cc(C)n1 (single isomer, unassigned) [Product 88]
6310 | 63 | – | COc1cc(C[C@]2(C)CCN([C@H](C)c3ccc4c(n3)OCCO4)C2)cc(C)n1 (single isomer, unassigned) [Product 92]
7940 | 55 | – | COc1cc(C[C@]2(C)CCN([C@@H](C)c3ccc4c(n3)OCCO4)C2)cc(C)n1 (single isomer, unassigned) [Product 93]
1000 | 93 | – | COc1cc(C[C@@]2(C)CCN([C@H](C)c3ccc4c(n3)OCCO4)C2)cc(C)n1 (single isomer, unassigned) [Product 94]
> 10000 | – | 37 | Cc1cnc(C[C@H]2CCN(C(C)c3cc4c(cc3F)OCCO4)C2)c(C)n1 (single isomer, unassigned) [Product 97]
31.6 | – | 103 | Cc1cnc(C[C@H]2CCN(C(C)c3cc4c(cc3F)OCCO4)C2)c(C)n1 (single isomer, unassigned) [Product 98]
794 | 94 | – | Cc1cc(OCC2(C)CCN(C(C)c3ccc4c(n3)OCCO4)C2)cc(C)n1 (stereo not drawn) [Product 77]
